Assay results reported in patent US10154957B2, “Microneedle device having a peptide therapeutic agent and an amino acid and methods of making and using the same” (3M INNOVATIVE PROPERTIES COMPANY, priority 2011, dated 2018).

Assay: Percent purity of PTHrP analogue (20 mg/mL formulations) in coating on flood-coated arrays stored at 40° C./96% RH (HPLC)
Assay type: physicochemical
Conditions: peptide 20 mg/mL in PBS
Procedure: The protein or polypeptide content in the formulation coated on the microneedle arrays was determined using an Agilent 1100 HPLC system (Agilent Technologies, Wilmington, Del.) equipped with a binary pump, well-plated thermostated autosampler, thermostated column compartment, and a diode array UV detector. A Zorbax 300SB-C8 column (Agilent Technologies, Wilmington, Del.) having a 5 μm particle size and 2.1×150 mm inner diameter was used for the separations. The column was maintained at 50° C. The mobile phase consisted of two eluents. Eluent A was 0.1% TFA (trifluoroacetic acid) in water and eluent B was 0.1% TFA in acetonitrile (Spectrum Chemical, New Brunswick, N.J.). A linear gradient from 80/20 to 50/50 (A/B) was applied over 30 minutes. The flow rate was 0.4 mL/minute and the UV detection wavelength was set at 214 nm. The total run time was 34 minutes and the sample injection volume was 15 μL.
A sample formulation containing 20 mg/mL of [Glu^22,25,Leu^23,28,31,Aib^29,Lys^26,30]hPTHrP(1-34)NH2 and 20 mg/mL of L-histidine monohydrochloride (His-HCl) in PBS was prepared. A control formulation was also prepared containing 20 mg/mL of [Glu^22,25,Leu^23,28,31,Aib^29,Lys^26,30]hPTHrP(1-34)NH2 in PBS. […] Microneedle arrays were coated with either the sample or the control formulation. The coating was applied by dropwise addition of 50 μL of the formulation to the portion of the array defined by the octagon shaped pattern of microneedles. The flood coated arrays (both sample and control formulation coated) were dried in an oven at 35° C. for 2 hours followed by 30° C. for 15 hours.
After drying, the coated arrays were placed in a storage chamber that was maintained at 40° C. and 96% relative humidity (RH). The [Glu^22,25,Leu^23,28,31,Aib^29,Lys^26,30]hPTHrP(1-34)NH2 content of the coated arrays was determined following storage in the chamber for 1, 3, and 7 days. The initial [Glu^22,25,Leu^23,28,31,Aib^29,Lys^26,30]hPTHrP(1-34)NH2 content was also determined using freshly coated arrays (both sample and control formulation coated). The arrays used to determine initial content were stored in a refrigerator at about 4° C. and analyzed within one day of being prepared. At the designated time point, an array was taken from the chamber and washed with 0.1 N acetic acid (20 mL) to remove the formulation from the array. The resulting wash solution was analyzed for [Glu^22,25,Leu^23,28,31,Aib^29,Lys^26,30]hPTHrP(1-34)NH2 content using the HPLC method described above. The results were quantified against an external standard of [Glu^22,25,Leu^23,28,31,Aib^29,Lys^26,30]hPTHrP(1-34)NH2. At each time point, the percent purity of [Glu^22,25,Leu^23,28,31,Aib^29,Lys^26,30]hPTHrP(1-34)NH2 in the coating was determined by measuring the peak area for [Glu^22,25,Leu^23,28,31,Aib^29,Lys^26,30]hPTHrP(1-34)NH2 in the selected coating and dividing it by the total peak area measured for all [Glu^22,25,Leu^23,28,31,Aib^29,Lys^26,30]hPTHrP(1-34)NH2 related peaks.
The same procedure as described in Example 9 was used with the exception that the sample formulation contained 20 mg/mL of L-arginine hydrochloride, instead of L-histidine monohydrochloride.

Percent Purity of [Glu^22,25, Leu^23,28,31, Aib^29, Lys^26,30]hPTHrP(1-34)NH2 (Amino Acid L-Arginine (Arg-HCl 20 mg/mL), Day 1 at 40° C./96% RH): 88.4% | Percent Purity of [Glu^22,25, Leu^23,28,31, Aib^29, Lys^26,30]hPTHrP(1-34)NH2 (Amino Acid L-Arginine (Arg-HCl 20 mg/mL), Day 3 at 40° C./96% RH): 76.1% | Percent Purity of [Glu^22,25, Leu^23,28,31, Aib^29, Lys^26,30]hPTHrP(1-34)NH2 (Amino Acid L-Arginine (Arg-HCl 20 mg/mL), Day 7 at 40° C./96% RH): 46.4% | Percent Purity of [Glu^22,25, Leu^23,28,31, Aib^29, Lys^26,30]hPTHrP(1-34)NH2 (Amino Acid L-Arginine (Arg-HCl 20 mg/mL), Initial): 99.0% | Percent Purity of [Glu^22,25, Leu^23,28,31, Aib^29, Lys^26,30]hPTHrP(1-34)NH2 (Amino Acid L-Histidine (His-HCl 20 mg/mL), Day 1 at 40° C./96% RH): 99.3% | Percent Purity of [Glu^22,25, Leu^23,28,31, Aib^29, Lys^26,30]hPTHrP(1-34)NH2 (Amino Acid L-Histidine (His-HCl 20 mg/mL), Day 3 at 40° C./96% RH): 98.9% | Percent Purity of [Glu^22,25, Leu^23,28,31, Aib^29, Lys^26,30]hPTHrP(1-34)NH2 (Amino Acid L-Histidine (His-HCl 20 mg/mL), Day 7 at 40° C./96% RH): 97.9% | Percent Purity of [Glu^22,25, Leu^23,28,31, Aib^29, Lys^26,30]hPTHrP(1-34)NH2 (Amino Acid L-Histidine (His-HCl 20 mg/mL), Initial): 99.4% | Percent Purity of [Glu^22,25, Leu^23,28,31, Aib^29, Lys^26,30]hPTHrP(1-34)NH2 (Amino Acid None (control), Day 1 at 40° C./96% RH): 85.6% | Percent Purity of [Glu^22,25, Leu^23,28,31, Aib^29, Lys^26,30]hPTHrP(1-34)NH2 (Amino Acid None (control), Day 3 at 40° C./96% RH): 53.1% | Percent Purity of [Glu^22,25, Leu^23,28,31, Aib^29, Lys^26,30]hPTHrP(1-34)NH2 (Amino Acid None (control), Day 7 at 40° C./96% RH): 21.1% | Percent Purity of [Glu^22,25, Leu^23,28,31, Aib^29, Lys^26,30]hPTHrP(1-34)NH2 (Amino Acid None (control), Initial): 98.9%
Substance: [Glu^22,25,Leu^23,28,31,Aib^29,Lys^26,30]hPTHrP(1-34)NH2
